Measured values published in patent US20170305943A1, “COMPOUNDS FOR THE TREATMENT OF BACTERIAL INFECTIONS” (priority 2014, published 2017).
≈ marks a conversion by molar mass, not a printed value.

Tests used:
Assay in all cases: Bacterial Assay: Determination of Antibacterial Activity (MIC, broth microdilution or agar dilution)
Type in all cases: cell-based
[1] = system: Clostridium difficile (Isolate ID 027-01); settings: Clostridioides difficile, 48 h, read-out: MIC (μg/mL) C. difficile (027-01)
Summary of the method: (§1)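 MICs were set by CLSI broth microdilution or agar dilution for anaerobes, read visually after 48 hours at 37° C. under anaerobic gas packs. Medium was reinforced clostridial medium with 0.1% defibrinated horse blood; values are binned as A ≦1.01, B >1.0-4.0, C >4.0-16 μg/mL.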

[2] = system: Clostridium difficile (Isolate ID BI-9); settings: Clostridioides difficile, 48 h, read-out: MIC (μg/mL) C. difficile (B-I9)
Summary of the method: as §1

[3] = system: Clostridium difficile (Isolate ID ATCC 9689); settings: Clostridioides difficile, ATCC9689, 48 h, read-out: C. difficile MIC Activity Range
Summary of the method: as §1

SMILES: NC(=O)c1c(F)ccc(OCc2nc(-c3ccc(OC(F)(F)F)cc3)cs2)c1F [Compound 17, 2,6-difluoro-3-({4-[4-(trifluoromethoxy)phenyl]-1,3-thiazol-2-yl}methoxy)benzamide]
- MIC [1]: 0.185 µg/mL (≈ 0.43 µM)
- MIC [2]: 0.25 µg/mL (≈ 0.581 µM)
- MIC [3]: < 1.01 µg/mL

SMILES: NC(=O)c1c(F)ccc(OCc2nc(-c3ccc(Cl)cc3)ns2)c1F [Compound 19, 3-{[3-(4-chlorophenyl)-1,2,4-thiadiazol-5-yl]methoxy}-2,6-difluorobenzamide]
- MIC [1]: 1 µg/mL (≈ 2.62 µM)
- MIC [2]: 2 µg/mL (≈ 5.24 µM)
- MIC [3]: < 1.01 µg/mL

SMILES: NC(=O)c1c(F)ccc(OCc2nc(-c3ccc(OC(F)(F)F)cc3)ns2)c1F [Compound 20, 2,6-difluoro-3-({3[4-(trifluoromethoxy)phenyl]-1,2,4-thiadiazol-5-yl}methoxy)benzamide]
- MIC [1]: 0.06 µg/mL (≈ 0.139 µM)
- MIC [2]: 0.06 µg/mL (≈ 0.139 µM)
- MIC [3]: < 1.01 µg/mL

SMILES: N/C(=N\O)c1c(F)ccc(OCc2nc(-c3ccc(Cl)cc3)ns2)c1F [Compound 21, 3-{[3-(4-chlorophenyl)-1,2,4-thiadiazol-5-yl]methoxy}-2,6-difluoro-N′-hydroxybenzene-carboximidamide]
- MIC [1]: 5 µg/mL (≈ 12.6 µM)
- MIC [2]: 5 µg/mL (≈ 12.6 µM)
- MIC [3]: < 1.01 µg/mL

SMILES: NC(=O)c1c(F)ccc(OC(CO)c2nc(-c3ccc(Cl)cc3)c(Br)o2)c1F (stereo not drawn) [Compound 33, 3-{1-[5-bromo-4-(4-chlorophenyl)-1,3-oxazol-2-yl]-2-hydroxyethoxy}-2,6-difluorobenzamide]
- MIC [1]: 0.12 µg/mL (≈ 0.253 µM)
- MIC [2]: 0.5 µg/mL (≈ 1.06 µM)
- MIC [3]: < 1.01 µg/mL

SMILES: CN(C)C(=O)OCC(Oc1ccc(F)c(C(N)=O)c1F)c1nc(-c2ccc(C(F)(F)F)cc2)c(Br)o1 (stereo not drawn) [Compound 49, 2-{5-bromo-4-[4-(trifluoromethyl)phenyl]-1,3-oxazol-2-yl}-2-(3-carbamoyl-2,4-difluorophenoxy)ethyl dimethylcarbamate]
- MIC [1]: 2 µg/mL (≈ 3.46 µM)
- MIC [2]: 2 µg/mL (≈ 3.46 µM)
- MIC [3]: 1 to 4 µg/mL (≈ 1.73 to 6.92 µM)

SMILES: CC(=O)OCC(Oc1cccc(C(N)=O)c1F)c1nc(-c2ccc(C(F)(F)F)cc2)c(Br)o1 (stereo not drawn) [Compound 57, 2-{5-bromo-4-[4-(trifluoromethyl)phenyl]-1,3-oxazol-2-yl}-2-(3-carbamoyl-2-fluorophenoxy)ethyl acetate]
- MIC [1]: 0.5 µg/mL
- MIC [2]: 0.5 µg/mL
- MIC [3]: < 1.01 µg/mL

SMILES: COc1ncccc1CNC(=O)OCC(Oc1ccc(F)c(C(N)=O)c1F)c1nc(-c2ccc(C(F)(F)F)cc2)c(Br)o1 (stereo not drawn) [Compound 74, 2-{5-bromo-4-[4-(trifluoromethyl)phenyl]-1,3-oxazol-2-yl}-2-(3-carbamoyl-2,4-difluorophenoxy)ethyl [(2-methoxypyridin-3-yl)methyl]carbamate]
- MIC [1]: 0.5 µg/mL (≈ 0.745 µM)
- MIC [2]: 0.5 µg/mL (≈ 0.745 µM)
- MIC [3]: < 1.01 µg/mL

SMILES: Cn1cccc1CNC(=O)OCC(Oc1ccc(F)c(C(N)=O)c1F)c1nc(-c2ccc(C(F)(F)F)cc2)c(Br)o1 (stereo not drawn) [Compound 80, 2-{5-bromo-4-[4-(trifluoromethyl)phenyl]-1,3-oxazol-2-yl}-2-(3-carbamoyl-2,4-difluorophenoxy)ethyl [(1-methyl-1H-pyrrol-2-yl)methyl]carbamate]
- MIC [1]: 0.5 µg/mL (≈ 0.777 µM)
- MIC [2]: 0.5 µg/mL (≈ 0.777 µM)
- MIC [3]: < 1.01 µg/mL

SMILES: NC(=O)c1c(F)ccc(OCc2nc(-c3ccc(Cl)cc3)c(Br)o2)c1F [Compound 104, 3-{[5-bromo-4-(4-chlorophenyl)-1,3-oxazol-2-yl]methoxy}-2,6-difluorobenzamide]
- MIC [1]: 0.12 µg/mL (≈ 0.27 µM)
- MIC [2]: 0.12 µg/mL (≈ 0.27 µM)
- MIC [3]: < 1.01 µg/mL

SMILES: NC(=O)c1c(F)ccc(OCc2nc(-c3ccc(OC(F)(F)F)cc3)c(Br)s2)c1F [Compound 105, 3-({5-bromo-4-[4-(trifluoromethoxy)phenyl]-1,3-thiazol-2-yl}methoxy)-2,6-difluorobenzamide]
- MIC [1]: 0.5 µg/mL (≈ 0.982 µM)
- MIC [2]: 1 µg/mL (≈ 1.96 µM)
- MIC [3]: < 1.01 µg/mL

SMILES: CCCCCCCCCOc1ccc(F)c(/C(N)=N/O)c1F [Compound 106, 2,6-difluoro-N′-hydroxy-3-(nonyloxy)benzenecarboximidamide]
- MIC [1]: 0.5 µg/mL (≈ 1.59 µM)
- MIC [2]: 0.5 µg/mL (≈ 1.59 µM)
- MIC [3]: < 1.01 µg/mL

SMILES: NC(=O)c1c(F)ccc(OCc2ccn(-c3ccc(OC(F)(F)F)cc3)n2)c1F [Compound 108, 2,6-difluoro-3-({1-[4-(trifluoromethoxy)phenyl]-1H-pyrazol-3-yl}methoxy)benzamide]
- MIC [1]: 0.5 µg/mL (≈ 1.21 µM)
- MIC [2]: 0.5 µg/mL (≈ 1.21 µM)
- MIC [3]: < 1.01 µg/mL

SMILES: NC(=O)c1c(F)ccc(OCc2nc(-c3ccc(S(F)(F)(F)(F)F)cc3)ns2)c1F [Compound 110, 2,6-difluoro-3-({3-[4-(pentafluoro-lambda~6~- sulfanyl)phenyl]-1,2,4-thiadiazol-5-yl}methoxy)benzamide]
- MIC [1]: 0.06 µg/mL (≈ 0.127 µM)
- MIC [2]: 0.06 µg/mL (≈ 0.127 µM)
- MIC [3]: < 1.01 µg/mL

SMILES: NC(=O)c1c(F)ccc(OCCc2nc(-c3ccc(OC(F)(F)F)cc3)cs2)c1F [Compound 111, 2,6-difluoro-3-(2-{4-[4-(trifluoromethoxy)phenyl]-1,3-thiazol-2-yl}ethoxy)benzamide]
- MIC [1]: 0.25 µg/mL (≈ 0.563 µM)
- MIC [2]: 0.25 µg/mL (≈ 0.563 µM)
- MIC [3]: < 1.01 µg/mL

SMILES: NC(=O)c1c(F)ccc(OCc2nc(-c3ccc(S(F)(F)(F)(F)F)cc3)cs2)c1F [Compound 112, 2,6-difluoro-3-({4-[4-(pentafluoro-lambda~6~- sulfanyl)phenyl]-1,3-thiazol-2-yl}methoxy)benzamide]
- MIC [1]: 0.12 µg/mL (≈ 0.254 µM)
- MIC [2]: 0.12 µg/mL (≈ 0.254 µM)
- MIC [3]: < 1.01 µg/mL

SMILES: NC(=O)c1c(F)ccc(OCCCOc2ccc(OC(F)(F)F)cc2)c1F [Compound 126, 2,6-difluoro-3-{3-[4-(trifluoromethoxy)phenoxy]propoxy}benzamide]
- MIC [1]: 0.5 µg/mL (≈ 1.28 µM)
- MIC [2]: 0.5 µg/mL (≈ 1.28 µM)
- MIC [3]: < 1.01 µg/mL

SMILES: NC(=O)c1c(F)ccc(OCCCCOc2ccc(Cl)cc2)c1F [Compound 127, 3-[4-(4-chlorophenoxy)butoxy]-2,6-difluoro-benzamide]
- MIC [1]: 0.25 µg/mL (≈ 0.703 µM)
- MIC [2]: 0.25 µg/mL (≈ 0.703 µM)
- MIC [3]: < 1.01 µg/mL

SMILES: NC(=O)c1c(F)ccc(OCCCCOc2ccc(OC(F)(F)F)cc2)c1F [Compound 128, 2,6-difluoro-3-{4-[4-(trifluoromethoxy)phenoxy]butoxy}benzamide]
- MIC [1]: 0.06 µg/mL (≈ 0.148 µM)
- MIC [2]: 0.12 µg/mL (≈ 0.296 µM)
- MIC [3]: < 1.01 µg/mL

SMILES: NC(=O)c1c(F)ccc(OCCCCOc2ccc(C(F)(F)F)cc2)c1F [Compound 129, 2,6-difluoro-3-{4-[4 (trifluoromethyl)phenoxy]butoxy}benzamide]
- MIC [1]: 0.06 µg/mL (≈ 0.154 µM)
- MIC [2]: 0.06 µg/mL (≈ 0.154 µM)
- MIC [3]: < 1.01 µg/mL

SMILES: NC(=O)c1c(F)ccc(OCCCCCOc2ccc(Cl)cc2)c1F [Compound 130, 3-{[5-(4-chlorophenoxy)pentyl]oxy}-2,6-difluorobenzamide]
- MIC [1]: 0.5 µg/mL (≈ 1.35 µM)
- MIC [2]: 0.5 µg/mL (≈ 1.35 µM)
- MIC [3]: < 1.01 µg/mL

SMILES: NC(=O)c1c(F)ccc(OCCCCCOc2ccc(OC(F)(F)F)cc2)c1F [Compound 131, 2,6-difluoro-3-({5-[4-(trifluoromethoxy)phenoxy]pentyl}oxy) benzamide]
- MIC [1]: 0.25 µg/mL (≈ 0.596 µM)
- MIC [2]: 0.25 µg/mL (≈ 0.596 µM)
- MIC [3]: < 1.01 µg/mL

SMILES: NC(=O)c1c(F)ccc(OCCCCCOc2ccc(C(F)(F)F)cc2)c1F [Compound 132, 2,6-difluoro-3-({5-[4 (trifluoromethyl)phenoxy]pentyl}oxy) benzamide]
- MIC [1]: 0.25 µg/mL (≈ 0.62 µM)
- MIC [2]: 0.5 µg/mL (≈ 1.24 µM)
- MIC [3]: < 1.01 µg/mL

SMILES: NC(=O)c1c(F)ccc(OCCCCCCOc2ccc(Cl)cc2)c1F [Compound 133, 3-{[6-(4-chlorophenoxy)hexyl]oxy}-2,6-difluorobenzamide]
- MIC [1]: 0.5 µg/mL (≈ 1.3 µM)
- MIC [2]: 0.5 µg/mL (≈ 1.3 µM)
- MIC [3]: < 1.01 µg/mL

SMILES: NC(=O)c1c(F)ccc(OCCCCCCOc2ccc(OC(F)(F)F)cc2)c1F [Compound 134, 2,6-difluoro-3-({6-[4 (trifluoromethoxy)phenoxy]hexyl}oxy) benzamide]
- MIC [1]: 0.25 µg/mL (≈ 0.577 µM)
- MIC [2]: 0.25 µg/mL (≈ 0.577 µM)
- MIC [3]: < 1.01 µg/mL

SMILES: NC(=O)c1c(F)ccc(OCCCCCCOc2ccc(C(F)(F)F)cc2)c1F [Compound 135, 2,6-difluoro-3-({6-[4-(trifluoromethyl)phenoxy]hexyl}oxy)benzamide]
- MIC [1]: 0.5 µg/mL (≈ 1.2 µM)
- MIC [2]: 0.5 µg/mL (≈ 1.2 µM)
- MIC [3]: < 1.01 µg/mL

SMILES: NC(=O)c1c(F)ccc(OCCOCCOc2ccc(Cl)cc2)c1F [Compound 136, 3-{2-[2-(4-chlorophenoxy)ethoxy]ethoxy}-2,6-difluorobenzamide]
- MIC [1]: 4 µg/mL (≈ 10.8 µM)
- MIC [2]: 4 µg/mL (≈ 10.8 µM)
- MIC [3]: 1 to 4 µg/mL (≈ 2.69 to 10.8 µM)

SMILES: CN(CCCCOc1ccc(OC(F)(F)F)cc1)c1ccc(F)c(C(N)=O)c1F [Compound 152, 2,6-difluoro-3-(methyl{4-[4-(trifluoromethoxy)phenoxy]butyl}amino) benzamide]
- MIC [1]: 0.5 µg/mL (≈ 1.2 µM)
- MIC [2]: 0.5 µg/mL (≈ 1.2 µM)
- MIC [3]: < 1.01 µg/mL

SMILES: NC(=O)c1c(F)ccc(OCCCCCc2ccc(C(F)(F)F)cc2)c1F [Compound 155, 2,6-difluoro-3-({5-[4-(trifluoromethyl)phenyl]pentyl}oxy)benzamide]
- MIC [1]: 0.12 µg/mL (≈ 0.31 µM)
- MIC [2]: 0.12 µg/mL (≈ 0.31 µM)
- MIC [3]: < 1.01 µg/mL

SMILES: NC(=O)c1c(F)ccc(OCCCCOc2ccc(S(F)(F)(F)(F)F)cc2)c1F [Compound 159]
- MIC [1]: 0.12 µg/mL (≈ 0.268 µM)
- MIC [2]: 0.12 µg/mL (≈ 0.268 µM)
- MIC [3]: < 1.01 µg/mL

SMILES: NC(=O)c1c(F)ccc(OCC#CCOc2ccc(OC(F)(F)F)cc2)c1F [Compound 160, 2,6-difluoro-3-({4-[4-(trifluoromethoxy)phenoxy]but-2-yn-1-yl}oxy)benzamide]
- MIC [1]: 0.25 µg/mL (≈ 0.623 µM)
- MIC [2]: 0.25 µg/mL (≈ 0.623 µM)
- MIC [3]: < 1.01 µg/mL

SMILES: NC(=O)c1c(F)ccc(OCCOCCOc2ccc(S(F)(F)(F)(F)F)cc2)c1F [Compound 161, 2,6-difluoro-3-(2-{2-[4-(pentafluoro-lambda~6~-sulfanyl)phenoxy]ethoxy}ethoxy)benzamide]
- MIC [1]: 2 µg/mL (≈ 4.32 µM)
- MIC [2]: 1 µg/mL (≈ 2.16 µM)
- MIC [3]: < 1.01 µg/mL

SMILES: Cc1sc(COc2ccc(F)c(C(N)=O)c2F)nc1-c1ccc(Cl)cc1 [Compound 189, 3-{[4-(4-chlorophenyl)-5-methyl-1,3-thiazol-2-yl]methoxy}-2,6-difluorobenzamide]
- MIC [1]: 1 µg/mL (≈ 2.53 µM)
- MIC [2]: 1 µg/mL (≈ 2.53 µM)
- MIC [3]: < 1.01 µg/mL
